Molecular target: CXCR4 (Homo sapiens, UniProt P61073)
Assay: inhibition of CXCL12
Type: cell-based
Settings: read-out: SDF-1 Ca2+ Flux CEM-1 IC50; SDF-1 induced calcium release; duplicate

Chain of CXCR4 (P61073 whole entry): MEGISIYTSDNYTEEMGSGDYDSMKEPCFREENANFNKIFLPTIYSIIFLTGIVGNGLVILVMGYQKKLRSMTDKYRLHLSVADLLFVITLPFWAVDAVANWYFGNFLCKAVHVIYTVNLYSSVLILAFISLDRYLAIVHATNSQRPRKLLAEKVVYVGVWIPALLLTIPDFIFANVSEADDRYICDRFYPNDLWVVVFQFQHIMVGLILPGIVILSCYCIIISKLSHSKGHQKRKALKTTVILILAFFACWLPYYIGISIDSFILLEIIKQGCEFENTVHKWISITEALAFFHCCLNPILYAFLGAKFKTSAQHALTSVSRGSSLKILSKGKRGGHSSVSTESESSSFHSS

## NCCCCN(C[C@H]1CN(C(=O)Nc2ccccc2)CCN1)[C@H]1CCCc2cccnc21 [Compound 57a]
  IC50: 21 µM

From PMC5776727 (Bioorganic & medicinal chemistry letters, 2015)
